One compound from patent publication US7553826B2, “Cytarabine monophosphate prodrugs” (Metabasis Therapeutics, Inc., priority 2002, dated 2009) can be followed below.

Series [1] is described as follows: Mouse 5-day safety pharmacology. Format: in vivo. The following applies: mice. The protocol:
AraC was purchased from Sigma Chemical Co. (St. Louis, Mo., catalog # C1768, lot # 39H5962). Compound C and araC were dissolved in sterile physiological saline. Stock solutions were prepared daily from pre-weighed drug. All but the highest concentrations were prepared by diluting the stock solutions using additional sterile saline. Any drug not used immediately was refrigerated and used within 24 hours. All prodrugs were dosed in cytarabine molar equivalents (CE).
Male NIH Swiss Webster mice (25 to 33 g body weight, Harlan Sprague Dawley, Indianapolis, Ind.) were injected i.p. with Compound C, araC or vehicle once a day on days 0-4, approximately 3 to 4 hours following the beginning of the vivarium light cycle. Doses for Compound C were 1000, 300, 100 and 30-mg/kg nucleoside equivalents/day (equal to 1848, 554, 185 and 55.4 mg/kg/day) whereas araC was administered at 100, 30, 10 and 3 mg/kg/day. The vehicle was saline. Body weights were recorded on days 0-4 immediately prior to compound administration and on day 5 prior to sacrifice. All mice were sacrificed on day 5 (23-25 hours following the last i.p. dose) by exsanguination under halothane anesthesia, and subsequent cervical dislocation. The blood from each animal was analyzed for blood chemistry and hematology parameters as described in Example H. Livers were excised and fixed in neutral-buffered 10% formalin, and bone marrow was flushed from the right femur using 1 ml PBS without calcium or magnesium and nucleated cell counts measured as in Example H.
EDTA-treated blood samples were submitted to LabCorp (LabCorp, San Diego, Calif.) for hematology analysis including erythrocyte and platelet numbers, hemoglobin, and hematocrit. Serum chemistry analysis was also performed by LabCorp. Tissue specimens from mice treated with vehicle or 100 mg/kg araC or 1000 mg/kg CE Compound C were coded and shipped in formalin to Comparative Biosciences (Mountain View, Calif.) for preparation of hematoxylin/eosin-stained tissue sections and histopathology evaluation. Specimen codes for the histopathology studies were: #1-7, Compound C 1000 mg/kg/day; #33-40, araC 100 mg/kg/day; #65-72, Saline vehicle.
Results are expressed as mean±standard error for 5-8 animals per dose group. For selected hematology parameters, data for each animal were also presented as a % of the mean of the vehicle group. Statistical analysis was performed by one-way ANOVA followed by Dunnett's post-hoc test for differences between a control group and multiple dose groups. A p-value of less than 0.05 was considered statistically significant.

Series [2] in a line: Single dose i.p. bolus liver levels / liver targeting in mice. To be noted: administered intraperitoneally. How it is done:
At specified times post injection, mice were anesthetized and exsanguinated via cardiac puncture. The whole liver was removed, and snap-frozen in liquid nitrogen, and homogenized using a Polytron homogenizer PT 10/35 (Brinkmann Instruments, Westbury, N.Y.) in 3 volumes of 10% (v/v) perchloric acid (PCA). After a 5 min centrifugation at 2,500×g, 1 mL of supernatant was neutralized using 0.3 mL 3 M KOH/3 M KHCO3 and mixed thoroughly. Samples were then centrifuged for 5 minutes and resulting supernatants were treated with periodate in order to remove endogenous ribonucleotides which otherwise might interfere with araCTP detection. […] Resulting samples were analyzed by HPLC as described below.
To measure bone marrow araCTP, the bone marrow samples were flushed from the marrow cavities of femurs with 1.2 ml saline into pre-weighed Eppendorf tubes. After centrifugation for 20-30 seconds (Eppendorf microfuge, 14,000 rpm) and removal of the supernatant, 12 volumes of 3% PCA (v/v) were added to the bone marrow cell pellets. Samples were then vortexed until the pellet was well dissolved and centrifuged as above for 10 min. Ninety μL of extracted supernatant was neutralized to pH 7-8 using 30 μL 1 M KOH/1 M KHCO3 and again centrifuged. Resulting supernatants were periodate-treated as above.
Samples (50 μL) were injected onto the column in 70% 10 mM ammonium phosphate buffer and 30% 1 M ammonium phosphate buffer, both at pH 3.5 and containing 6% ethanol. […] A standard curve was prepared by adding known amounts of araCTP into PCA extracts from control liver or bone marrow prior to neutralizing, and preparing HPLC samples accordingly.
To obtain plasma, blood was transferred to heparinized micro-collection tubes and centrifuged in an Eppendorf microfuge at 14,000 rpm for 2 minutes. Resulting plasma was collected, placed on dry ice, and subsequently stored at −20° C. On the day of analysis, proteins were precipitated by adding 1 mL acetonitrile to 100 μL of plasma. After 10 min centrifugation (Eppendorf microfuge, 14,000 rpm), the supernatant was removed and dried in a Savant SpeedVac Plus SC110A. Samples were reconstituted with 110 μL of mobile phase buffer (20 mM KH2PO4, pH 4.5), sonicated for 5 min, and centrifuged for 30 seconds. […] AraC and prodrugs were detected by absorbance at 280 nm and quantitated using standard curves obtained with spiked plasma samples processed as above.
Results are expressed as mean±standard error of the mean. Data were analyzed by repeated measures ANOVA, followed by the Tukey HSD post-hoc test for comparisons at individual time points when appropriate. A p-value of less than 0.05 was considered statistically significant. Dotted lines in figures indicate LOQ (limit of quantitation) using the indicated HPLC method.
(§1) In those studies, liver, plasma and bone marrow samples were obtained at necropsy to evaluate liver targeting.
(§2) Results are expressed as mean±standard error of the mean. When appropriate, AUC was calculated from time zero to the last time-point of the study. Liver targeting indices (LTIs) were calculated by dividing the liver araCTP AUC by the AUC for plasma araC (plasma LTI) or by the AUC for bone marrow araCTP (bone marrow LTI) for each compound. For the continuous infusion studies, the steady state araCTP levels were divided by the steady state plasma araC levels.

A short description of series [3]: Liver araCTP and liver targeting with continuous i.v. infusion in rats. The following applies: rat, in vivo, iv.
Description: A saline filled blunt PE-50 tubing catheter (Intramedic, Becton Dickinson, Sparks, Md.) was inserted into the jugular vein, exteriorized between the scapulae and connected to a swivel-tethering constant infusion system (Lomir Biomedical, Inc., Malone, N.Y. and Harvard Apparatus, Inc., South Natick, Mass.). The tubing was filled with heparinized saline and sealed, and the animals allowed to recover for one to seven days.
After the various durations of infusion the animals were anesthetized by intra-catheter injections of the anesthetic mix described above. Blood samples were obtained via cardiac puncture using a 23-gauge needle attached to a heparin coated 3 cc syringe.
as §1, §2

Series [4] is described as follows: Plasma stability in human plasma. Format: in vitro ADME. How it is done: Male- and female-pooled human plasma (Bioreclamation Inc., Hickville, N.Y., catalog # […], lot # BRH02236) containing heparin as anticoagulant, pH of all plasma aliquots was 8.3. […] Samples (100 μL) were quenched with 1 mL of acetonitrile. […] Samples were resuspended in 120 μL of mobile phase buffer before HPLC analysis. For plasma samples, 40 μL or 50 μL samples were injected onto the column described in Example E with mobile phase buffer, 20 mM potassium phosphate buffer, pH 6.2 (Fisher Scientific, catalog # P261-1, various lots). All other HPLC analysis was performed as described in Example E.

With `Nc1ccn([C@@H]2O[C@H](COP3(=O)OCCC(c4ccncc4)O3)[C@@H](O)[C@@H]2O)c(=O)n1` (relative stereo) [Compound C, 2(1H)-Pyrimidinone, 4-amino-1-[5-O-cis-[2-oxido-4-(4-pyridinyl)-1,3,2-dioxaphosphorinan-2-yl]-β-D-arabinofuranosyl]], the “histopathology of liver, kidney and small intestine” value in series [1] (100 mg/kg araC or 1000 mg/kg CE Compound C) was “no toxicologically relevant histopathologic changes”. In series [1] (5-day repeated dose), the hepatotoxicity entry is “No hepatotoxicity was observed” and the “safety relative to araC in terms of hematologic endpoints” value was no less than 30 fold. In addition, in series [1] (5 days i.p., araC 30 and 100 mg/kg/day), the “red blood cell parameters (erythrocyte numbers, hematocrit, hemoglobin)” value is reported as “similarly affected these parameters, but at ten-fold higher doses”. Besides, the “dose required to reduce nucleated bone marrow cells, relative to araC” value in series [1] (Compound C 1000 mg/kg/day of nucleoside equivalents) worked out at 30 fold. For the same compound, the “PMN, mononuclear cell, or platelet numbers” value in series [1] (any dose (30-1000 mg/kg/day CE) i.p. for 5 days) is “did not affect”. Moreover, the “effect on body weight” value in series [1] (daily i.p. 5 days, highest dose: araC 100 mg/kg/day, Compound C 1000 mg/kg/day of nucleoside equivalents) is recorded as “no significant effect”. In addition, in series [1] (araC 30 and 100 mg/kg/day, Compound C 1000 mg/kg/day), the Glucose result is listed as “lowered”. Also, the “reduction of peripheral exposure (liver targeting)” value in series [2] is listed as roughly 20 fold. For the same compound, in series [3], the “reduction of peripheral exposure (liver targeting)” value is roughly 10 fold. For the same compound, in series [4], the “half-lives in human plasma” value was greater than 1 days.
